Reference: publication PMC6522510 (Nature Communications, 2019)
Like-named read-outs stand apart in the source and are kept apart here.

Tests used:
Assay in all cases: cells
Design in all cases: species or system AML cell lines (8); Secondary HTS, 10-point dose-response in triplicate, Cell Titer Glo viability, four-parameter fit EC50
[1] = tested on: MOLM-13; details: Homo sapiens, read-out: MOLM-13
[2] = tested on: MV4-11; details: Homo sapiens, read-out: MV4-11
[3] = tested on: CHRF288-11; details: read-out: CHRF288-11
[4] = tested on: CMK; details: Homo sapiens, read-out: CMK
[5] = tested on: CMS; details: read-out: CMS
[6] = tested on: M07e; details: M-07e, read-out: M07e
[7] = tested on: ML-2; details: Homo sapiens, read-out: ML-2
[8] = tested on: U937; details: Homo sapiens, read-out: U937

Row | Structure (SMILES) | EC50 ([1]; MOLM-13, 72 h) | EC50 ([2]; MV4-11, 72 h) | EC50 ([8]; U-937, 72 h) | EC50 ([3]; 72 h) | EC50 ([4]; CMK, 72 h) | EC50 ([5]; 72 h) | EC50 ([6]; 72 h) | EC50 ([7]; ML-2, 72 h) | EC50 ([1]; 72 h cell viability) | EC50 ([2]; 72 h cell viability) | EC50 ([3]; 72 h cell viability) | EC50 ([4]; 72 h cell viability) | EC50 ([5]; 72 h cell viability) | EC50 ([6]; 72 h cell viability) | EC50 ([7]; 72 h cell viability) | EC50 ([8]; U-937, 72 h cell viability)
1 | O=C(O)Cc1ccccc1 [SJ000784253, SODIUM PHENYLACETATE] |  |  |  |  |  |  |  |  | 2.1 µM | > 10 µM | > 10 µM | > 10 µM | > 10 µM | > 10 µM | > 10 µM | > 10 µM
2 | CC(=O)Nc1ccc(NC(=S)NC(=O)c2ccc(C(C)(C)C)cc2)cc1 [SJ000784260, TENOVIN-1] | > 10 µM | > 10 µM | > 10 µM | > 10 µM | > 10 µM | 0.77 µM | > 10 µM | > 10 µM |  |  |  |  |  |  |  | 
3 | COc1cc2c(NC3CCN(C)CC3)nc(N3CCCN(C)CC3)nc2cc1OCCCN(C)C [SJ000784262, UNC0224] | > 10 µM | > 10 µM | > 10 µM | > 10 µM | > 10 µM | > 10 µM | > 10 µM | > 10 µM |  |  |  |  |  |  |  | 
4 | NC(=O)C1CCCc2c1[nH]c1ccc(Cl)cc21 (stereo not drawn) [SJ000784267] | > 10 µM | > 10 µM | > 10 µM | > 10 µM | > 10 µM | > 10 µM | > 10 µM | > 10 µM |  |  |  |  |  |  |  | 
5 | CN(C)CCCNc1c2ccccc2nc2c1[nH]c1ccccc12 [SJ000784272, SYUIQ-5] | 1.6 µM | > 10 µM | 0.21 µM | 1.6 µM | > 10 µM | 0.37 µM | 0.54 µM | 1.8 µM |  |  |  |  |  |  |  | 
6 | COC(=O)/C=C/C(=O)OC [SJ000784308, BG-12] | > 10 µM | > 10 µM | > 10 µM | > 10 µM | > 10 µM | > 10 µM | > 10 µM | > 10 µM |  |  |  |  |  |  |  | 
7 | COc1ccc(-c2cc3c(C)nc(N)nc3n([C@H]3CC[C@H](OCCO)CC3)c2=O)cn1 [SJ000784313, PF-04691502] | 2.1 µM | 0.001 µM | 0.6 µM | 4.3 µM | 1.4 µM | 0.34 µM | > 10 µM | 0.23 µM |  |  |  |  |  |  |  | 
8 | CN[C@@H]1C[C@H]2O[C@@](C)([C@@H]1OC)n1c3ccccc3c3c4c(c5c6ccccc6n2c5c31)C(=O)N[C@H]4O [SJ000784325, 7-HYDROXYSTAUROSPORINE] | 0.065 µM | 0.19 µM | 0.26 µM | 0.35 µM | 0.23 µM | 0.41 µM | > 10 µM | 0.25 µM |  |  |  |  |  |  |  | 
9 | Nc1nc(=O)n([C@H]2C[C@H](O)[C@@H](CO)O2)cc1F [SJ000785889, 5-FLUORODEOXYCYTIDINE] | 0.45 µM | > 10 µM | > 10 µM | 3.17 µM | 0.14 µM | > 10 µM | > 10 µM | 0.0089 µM |  |  |  |  |  |  |  | 
10 | COc1cc2c(cc1-c1c(C)noc1C)ncc1[nH]c(=O)n([C@H](C)c3ccccn3)c12 [SJ000785891, I-BET151] | 0.65 µM | > 10 µM | 3.2 µM | 5.1 µM | > 10 µM | 2.1 µM | > 10 µM | 2.7 µM |  |  |  |  |  |  |  | 
11 | Fc1ccc(CNc2ncnc3ccc(F)cc23)cc1 [SJ000785893, SPAUTIN-1] | > 10 µM | > 10 µM | 3 µM | > 10 µM | > 10 µM | > 10 µM | > 10 µM | > 10 µM |  |  |  |  |  |  |  | 
12 | Nc1ncnc2c1ncn2[C@@H]1O[C@H](C(=O)N2CCN(CC(=O)Nc3cccc4c3CNC4=O)CC2)[C@@H](O)[C@H]1O [SJ000785896, EB-47] | > 10 µM | > 10 µM | > 10 µM | > 10 µM | > 10 µM | > 10 µM | > 10 µM | > 10 µM |  |  |  |  |  |  |  | 
13 | COc1cc2c(NC3CCN(C)CC3)nc(N3CCCN(C)CC3)nc2cc1OCCOCCN(C)C [SJ000785901, UNC0321] | > 10 µM | > 10 µM | > 10 µM | > 10 µM | > 10 µM | > 10 µM | > 10 µM | > 10 µM |  |  |  |  |  |  |  | 
14 | Cc1cc(Nc2ccc(NC(=O)c3ccc(Nc4ccnc5ccccc45)cc3)cc2)nc(N)n1 [SJ000785906, SGI-1027] | 1.4 µM | 1.2 µM | 0.75 µM | 2.8 µM | > 10 µM | 9.9 µM | 1.6 µM | 2.6 µM |  |  |  |  |  |  |  | 

The next lines start with results.

Row | EC50 ([1]; MOLM-13, 72 h) | EC50 ([2]; MV4-11, 72 h) | EC50 ([8]; U-937, 72 h) | Structure (SMILES) | EC50 ([3]; 72 h) | EC50 ([4]; CMK, 72 h) | EC50 ([5]; 72 h) | EC50 ([6]; 72 h) | EC50 ([7]; ML-2, 72 h) | EC50 ([1]; 72 h cell viability) | EC50 ([2]; 72 h cell viability) | EC50 ([3]; 72 h cell viability) | EC50 ([4]; 72 h cell viability) | EC50 ([5]; 72 h cell viability) | EC50 ([6]; 72 h cell viability) | EC50 ([7]; 72 h cell viability) | EC50 ([8]; U-937, 72 h cell viability)
15 | > 10 µM | > 10 µM | > 10 µM | Cc1cc(Cl)ccc1OCCCC(=O)NO [SJ000784245, DROXINOSTAT] | 0.37 µM | > 10 µM | 6.81 µM | > 10 µM | > 10 µM |  |  |  |  |  |  |  | 
16 | 1.5 µM | > 10 µM | 2.8 µM | O=C(Nc1cccc(NC(=O)c2cccc(O)c2O)c1)c1cccc(O)c1O [SJ000784251, MST312] | 2 µM | > 10 µM | 2.9 µM | 5.2 µM | 3.7 µM |  |  |  |  |  |  |  | 
17 | > 10 µM | > 10 µM | > 10 µM | CN(C)CC(=O)Nc1ccc2[nH]c(=O)c3ccccc3c2c1 [SJ000784265, PJ34] | > 10 µM | > 10 µM | > 10 µM | > 10 µM | > 10 µM |  |  |  |  |  |  |  | 
18 | > 10 µM | > 10 µM | 3.4 µM | Cn1cc(/C=C/C(=O)c2cccc(F)c2)cc1/C=C/C(=O)NO [SJ000784269, MC1568] | 4.9 µM | > 10 µM | > 10 µM | 0.456 µM | 4.3 µM |  |  |  |  |  |  |  | 
19 | > 10 µM | > 10 µM | > 10 µM | Clc1ccc(-c2csc(NN=C3CCCC3)n2)cc1 [SJ000784270, CPTH2] | > 10 µM | > 10 µM | > 10 µM | > 10 µM | > 10 µM |  |  |  |  |  |  |  | 
20 | 0.26 µM | 0.72 µM | 1.6 µM | Cn1cccc1/C=C1\C(=O)NC(=O)c2ccccc21 [SJ000784271, BYK 204165] | 5.5 µM | > 10 µM | 2.2 µM | 0.63 µM | > 10 µM |  |  |  |  |  |  |  | 
21 | 3.1 µM | > 10 µM | 6.7 µM | CC(C)C(=O)SCCCCCCC(=O)Nc1nc(-c2ccccc2)cs1 [SJ000784276, NCH 51] | 3.6 µM | > 10 µM | 4.5 µM | 3.6 µM | 5.6 µM |  |  |  |  |  |  |  | 
22 | 2.5 µM | > 10 µM | > 10 µM | NC(=O)c1cccc2ncc(-c3ccc(Cl)cc3)nc12 [SJ000784278, PARP INHIBITOR XII] | > 10 µM | > 10 µM | > 10 µM | > 10 µM | > 10 µM |  |  |  |  |  |  |  | 
23 | > 10 µM | > 10 µM | > 10 µM | O=C(O)C(Cc1c[nH]c2ccccc12)N1C(=O)c2ccccc2C1=O (stereo not drawn) [SJ000784279, RG108] | > 10 µM | > 10 µM | > 10 µM | > 10 µM | > 10 µM |  |  |  |  |  |  |  | 
24 | > 10 µM | > 10 µM | > 10 µM | CCCCCCCCCCCCCCCc1cccc(O)c1C(=O)O [SJ000785900, ANACARDIC ACID] | > 10 µM | > 10 µM | > 10 µM | > 10 µM | > 10 µM |  |  |  |  |  |  |  | 
